Results: patent US7879566B2, “Methods for the identification of modulators of OSGPR114 or OSGPR78 activity, and their use in the treatment of disease” (OSI Pharmaceuticals, Inc., priority 2003, dated 2011)

Tests used:
[1] = system: Akt in CHO cell line stably transfected with OSGPR114; experiment: Akt phosphorylation, phospho-specific Akt antibody; format: cell-based; conditions: 10 uM, 3 minutes
Protocol: FIG. 26. Effect of LPA (10 μM), EGF (1 μM) and DMSO on levels of phospho-Akt as a in a CHO-K1 cell line stably transfected with OSGPR114.
The protein Akt is a well characterized survival pathway for many cancer cells and is a pathway that can be induced by multiple cell growth factors (For review, see Marte and Downward (1997) Trends Biochem. Sci. 22:355-358). […] The cells used for this experiment were a CHO cell line stably transfected with OSGPR114. The cells were treated with vehicle, LPA (10 uM) or EGF (1 uM) for 3 minutes.

CHO cells = experiment: FLIPR intracellular calcium assay, CHO cells; format: cell-based, hamster
Protocol: (§1) For example, in one method employed herein, CHO and CHO-114 cells were seeded at a concentration of 50K cells/well in […] growth media in clear, flat-bottom 96-well black assay plates and incubated overnight at 37 C. The growth media is aspirated from the cells and a dye solution ([…]) added to each well. The dye solution consists of 2 mM probenecid, 2 mM HBSS, […] in a growth media minus antibiotics solution. The cells are loaded with the dye for 1 h at 37 C before aspiration and rinsing with wash buffer (20 mM HBSS+2 mM Probenecid). Compound plates are then prepared with 4× compound/control. 150 ul of wash buffer is added to each well. Once the FLIPR is fully calibrated, compound is added to the plate and the release of calcium measured using 0.4 exposure length and a laser set at 0.3W.

paxillin in HCT-8 cells = experiment: Paxillin phosphorylation, activation state specific antibodies; format: cell-based, human; conditions: 10 uM
Protocol: (§2) FIGS. 25A-C. LPA (10 uM) activation of Shc (A), paxillin (B) and SHP-2(C) in HCT-8 cell lysates. Phospho-specific antibodies were used to detect the activated proteins.
(§3) Many of the growth and survival signaling pathways of cancer cells have been identified. […] The protein She is an adaptor protein and the protein phosphatase SHP-2 are known to link the activation of multiple growth factor receptors to their downstream signaling pathways in cancer cells (For review see Yart et al. (2003) Current Cancer Drug Targets 3:177-192). These proteins are involved in mitogenic signaling by linking growth stimuli to the Ras-mitogen-activated protein kinase cascade and the PI3K survival pathway. […] Additionally, paxillin is a scaffold molecule intricately involved in the regulation of focal adhesions in cancer cells. It is therefore involved in the regulation of cell spreading and motility and is controlled by a multitude of signaling moieties including growth factors, and their downstream signaling molecules. Paxillin recruits these signaling components into specific cell compartments known as focal adhesions (For review, see Schaller (2001) Oncogene 20:6459-72). […] By treating HCT-8 cells with LPA (10 uM), the effect of LPA on the phosphorylation of paxillin was measured using activation state specific antibodies ([…]).

OSGPR114 = molecular target: T1, OSGPR114 (Homo sapiens, UniProt Q9H1C0); experiment: FLIPR intracellular calcium assay, CHO-OSGPR114 cells; format: cell-based; conditions: FLIPR, read-out: EC50, intracellular calcium response
T1 construct: expressed in transfected cells; host or cells: engineered yeast (GPA1 replaced by G-alpha chimeras, STE3 deleted; Fus1p-LacZ reporters)
Protocol: as §1

EGFR in HCT-8 cells = experiment: EGFR transactivation, Western blot with phospho-tyrosine specific antibody; format: cell-based, human; conditions: 10 μM
Text: FIG. 24: Western blot showing the ability of LPA to transactivate EGFR in HCT-8 cells, as assessed using a phospho-tyrosine specific antibody.
The ability of LPA to phosphorylate ERK1/2 has been extensively described in the literature, and three principal mechanisms have been described for this effect. […] The first of these pathways involves β-arrestin recruitment and activation of Src, which then transactivates the RTK. The second of these pathways involves She which is recruited by LPA and can itself activate membrane-bound metalloproteases (e.g. ADAM10) which causes release of heparin-bound epidermal growth factor (EGF) which can then activate EGF receptor. EGF and activation of the EGF receptor is a well known proliferative pathway for many cell lines. The possibility of LPA causing transactivation of EGFR in HCT-8 cells was tested as the EGFR signaling pathway is known to be present and active in these cells. […] From the LPA-based literature, the potential for LPA to also transactivate other RTKs, such as PDGFR for example, in these cells is a very likely possibility.

HCT-8 cells = experiment: LPA effect on apoptosis (Apo-One Caspase 3/7); format: cell-based, human
Protocol: The effect of LPA on cell proliferation (Cell TiterGlo assay, Promega) and induction of apoptosis (Apo-One Caspase 3/7 assay, Promega) was measured in the presence and absence of serum. Cell-titer Glo is an assay that quantitates ATP as a measurement of the number of viable cells in a culture. The assay utilizes a luciferase-based luminescent signal. The Apo-One assay utilizes a profluorescent caspase 3/7 consensus substrate to measure the activation of caspase in the sample. The experiments were conducted in serum-free media as it is known that serum contains high concentrations of LPA (of the order of 10-30 uM). Briefly, cells were plated in 96-well plates at a density of 20,000 cells/well. After 24 h the serum-containing media was removed from the cells and replaced with either serum-containing or serum-free media. After 24 h LPA, at concentrations from 1-100 μM was added to the cells. 24 h later the induction of apoptosis and the level of cellular proliferation was measured using the Cell titer-glo or Caspase 3/7 Apo-One assay kits commercially available from Promega.

SHP-2 in HCT-8 cells = experiment: SHP-2 activation, phospho-specific antibody; format: cell-based, human; conditions: 10 uM
Protocol: as §2, §3

Shc in HCT-8 cells = experiment: Shc activation, phospho-specific antibody; format: cell-based, human; conditions: 10 uM
Protocol: as §2, §3

T1 sequence (Q9H1C0 whole entry): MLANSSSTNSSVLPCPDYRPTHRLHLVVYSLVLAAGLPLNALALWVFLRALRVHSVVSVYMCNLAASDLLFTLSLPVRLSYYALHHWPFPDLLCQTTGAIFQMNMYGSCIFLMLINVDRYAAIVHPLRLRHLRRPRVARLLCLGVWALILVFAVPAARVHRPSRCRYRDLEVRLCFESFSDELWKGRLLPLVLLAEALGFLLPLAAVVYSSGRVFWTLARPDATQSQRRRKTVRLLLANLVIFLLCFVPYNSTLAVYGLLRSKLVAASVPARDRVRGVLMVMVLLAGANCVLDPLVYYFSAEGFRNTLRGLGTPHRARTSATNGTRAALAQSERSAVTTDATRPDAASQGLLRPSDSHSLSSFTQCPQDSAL

lysophosphatidic acid [LPA]
phosphorylation of Akt [1]: stimulate phosphorylation of Akt | change in intracellular calcium concentration (CHO cells): no significant change | phosphorylated paxillin (paxillin in HCT-8 cells): highly significant increase in phosphorylated paxillin | EC50 (OSGPR114): 59 nM | EGFR transactivation (EGFR in HCT-8 cells): capable of transactivating EGFR | apoptosis (HCT-8 cells; presence of 10% FCS): no statistically significant effects | apoptosis induced through serum starving (HCT-8 cells; serum free conditions, LPA 1-100 μM, 24 h): reversed apoptosis | phosphorylation of SHP-2 (SHP-2 in HCT-8 cells): induced the phosphorylation | phosphorylation of Shc (Shc in HCT-8 cells): induced the phosphorylation
